# Read-outs that look alike come from different tables or passages of the source.
# Key:
# [1] = test system: Mycobacterium tuberculosis strain H37Rv ΔctaE-ΔqcrCAB; test: microbe, parasite or virus in culture; assay type: cell-based; conditions: 240 h
# [2] = test system: Mycobacterium tuberculosis (strain H37Ra), cyt bd; conditions: Mtb H37Ra; for (i) % OCR after cyt bd inhibitor: test compound 10 μM added after Compound X 0.9 μM; for (ii) % OCR after cccp: test compound 10 μM after Compound X 0.9 μM, then CCCP 1 μM
# [3] = test system: Mitochondrial toxicity (Glu/Gal); test: Mitochondrial toxicity (Glu/Gal) assay; assay type: cell-based; parameters: key to Score: “negative” means that in the test, it was found to have low mitotoxicity (and hence no mitotoxicity alerts); “positive” means that there were some mitotoxicity alerts; “inconclusive” means that no accurate conclusion could be drawn; conditions: for Score: mitotoxicity score; for Δ IC50,glu/IC50,gal: ratio glu/gal
# Source text: The compounds of the invention/examples may have advantages associated with in vitro potency, kill kinetics (i.e. bactericidal effect) in vitro, PK properties, food effect, safety/toxicity (including liver toxicity, coagulation, 5-LO oxygenase), metabolic stability, Ames II negativity, MNT negativity, aqueous based solubility (and ability to formulate) and/or cardiovascular effect e.g. on animals (e.g. anesthetized guinea pig). The data below that was generated/calculated may be obtained using standard methods/assays, for instance that are available in the literature or which may be performed by a supplier (e.g. Microsomal Stability Assay—Cyprotex, Mitochondrial toxicity (Glu/Gal) assay—Cyprotex, as well as literature CYP cocktail inhibition assays).
# [4] = galactose medium, read-out: IC50, gal
# [5] = glucose medium, read-out: IC50, glu
Compound,IC50 [1],(i) % OCR after cyt bd inhibitor [2],(ii) % OCR after cccp [2],"IC50 [3, 4]","IC50 [3, 5]",Score [3],"Δ IC50,glu/IC50,gal [3]"
Cc1ccc(-c2ccc3nc(-c4[nH]c5ccccc5c(=O)c4C)nn3c2)o1 [Compound 91],1740 nM,"49,11%","56,23%",–,–,–,–
COc1cc2nc(-c3[nH]c4ccccc4c(=O)c3C)nn2cc1F [Compound 40],> 100000 nM,95.33%,134.33%,200 µM,200 µM,negative,[x]0
C/C=C(\C=C/C1=NC(c2[nH]c3ccccc3c(=O)c2C)=NC(CC)C1)c1ccc(OC)c(OC)c1 (stereo not drawn) [Compound 120],697 nM,"59,83%","89,24%",–,–,–,–
COc1cc2c(=O)c(C)c(-c3nc4ccc(-c5ccc(OC(F)(F)F)cc5)cn4n3)[nH]c2cc1Cl [Compound 78],–,135.74%,178.3%,–,–,–,–
Cc1cc(-c2ccc3nc(-c4[nH]c5ccccc5c(=O)c4C)nn3c2)ccc1F [Compound 110],3780 nM,"40,37%","51,51%",200 µM,200 µM,negative,[x]0
Cc1c(-c2nc3ccc(Cl)cn3n2)[nH]c2ccccc2c1=O [Compound 74],> 100000 nM,86.4%,173.3%,121 µM,135 µM,negative,[x]l.ll
Cc1c(-c2nc3ccc(Br)cn3n2)[nH]c2c(F)cc(F)cc2c1=O [Compound 57],> 50000 nM,102%,149.2%,100 µM,100 µM,negative,[x]0
Cc1c(-c2nc3ccc(-c4ccc(C(F)(F)F)s4)cn3n2)[nH]c2ccccc2c1=O [Compound 11],2600 nM,62.79%,69.17%,–,–,–,–
COc1cc2[nH]c(-c3nc4ccc(-c5ccc(OC(F)(F)F)cc5)cn4n3)c(C)c(=O)c2cc1Cl [Compound 69],–,150.98%,165.1%,–,–,–,–
Cc1c(-c2nc3ccc(-c4ccc(OC(F)(F)F)cc4)cn3n2)[nH]c2c(F)cc(F)cc2c1=O [Compound 64],–,109.65%,158.95%,–,–,–,–
Cc1c(-c2nc3ccc(-c4cn(C)nn4)cn3n2)[nH]c2ccccc2c1=O [Compound 76],> 5000 nM,111.72%,175.05%,–,–,–,–
CN(C)C(=O)c1c(-c2nc3ccc(-c4ccc(OC(F)(F)F)cc4)cn3n2)[nH]c2ccccc2c1=O [Compound 31],> 50000 nM,68.97%,120.39%,76 µM,200 µM,inconclusive,[x]2.63
COc1ccc(-c2ccc3nc(-c4[nH]c5ccccc5c(=O)c4C)nn3c2)cc1 [Compound 90],1490 nM,"25,77%","30,69%",200 µM,200 µM,negative,[x]0
Cc1c(-c2nc3ccc(-c4cccc(C(F)F)c4)cn3n2)[nH]c2ccccc2c1=O [Compound 107],3320 nM,"58,92%","76,98%",–,–,–,–
Cc1c(-c2nc3ccc(OC(F)(F)F)cn3n2)[nH]c2ccccc2c1=O [Compound 30],2920 nM,93.8%,120.2%,100 µM,100 µM,negative,[x]0
Cc1c(-c2nc3ccc(N4CCCC(C(F)(F)F)C4)cn3n2)[nH]c2ccccc2c1=O (stereo not drawn) [Compound 9],1310 nM,58.71%,62.22%,–,–,–,–
Cc1ccc(-c2ccc3nc(-c4[nH]c5ccccc5c(=O)c4C)nn3c2)cc1F [Compound 124],1690 nM,"31,72%","37,02%",200 µM,200 µM,negative,[x]0
Cc1cc(F)cc(-c2ccc3nc(-c4[nH]c5ccccc5c(=O)c4C)nn3c2)c1 [Compound 86],1320 nM,"32,57%","39,44%",50 µM,50 µM,negative,[x]0
Cc1c(-c2nc3ccc(-c4cccc(CC(F)F)c4)cn3n2)[nH]c2ccccc2c1=O [Compound 112],1850 nM,"31,36%","38,59%",–,–,–,–
Cc1c(-c2nc3ccc(-c4nc(C(F)(F)F)ns4)cn3n2)[nH]c2ccccc2c1=O [Compound 38],4880 nM,95.63%,132.88%,–,–,–,–

Compound,IC50 [1],(i) % OCR after cyt bd inhibitor [2],(ii) % OCR after cccp [2],"IC50 [3, 4]","IC50 [3, 5]",Score [3],"Δ IC50,glu/IC50,gal [3]"
Cc1c(-c2nc3ccc(-c4ccc(OC(F)(F)F)c(F)c4)cn3n2)[nH]c2ccccc2c1=O [Compound 1],1630 nM,26.9%,35.1%,19.8 µM,100 µM,positive,[x]5.06
COc1ccc2[nH]c(-c3nc4ccc(-c5ccc(OC(F)(F)F)cc5)cn4n3)c(C)c(=O)c2c1 [Compound 43],> 100000 nM,109.2%,138%,10.6 µM,26.3 µM,inconclusive,[x]2.48
Cc1c(-c2nc3ccc(-c4ccc(OC(F)(F)F)cc4)cn3n2)[nH]c2ccc(F)cc2c1=O [Compound 3],–,28.75%,38.75%,–,–,–,–
COc1ccc(-c2ccc3nc(-c4[nH]c5ccccc5c(=O)c4C)nn3c2)cc1F [Compound 98],1980 nM,"54,17%","73,86%",–,–,–,–
Cc1c(-c2nc3ccc(-c4ccc(F)cc4)cn3n2)[nH]c2ccccc2c1=O [Compound 36],–,88.6%,130.6%,–,–,–,–
Cc1c(-c2nc3ccc(-c4ncc(C(F)(F)F)s4)cn3n2)[nH]c2ccccc2c1=O [Compound 37],–,93.8%,132.68%,–,–,–,–
Cc1c(-c2nc3ccc(N4CCOCC4)cn3n2)[nH]c2ccccc2c1=O [Compound 54],5940 nM,–,–,–,–,–,–
Cc1c(-c2cn3cc(-c4ccc(OC(F)(F)F)cc4)ccc3n2)[nH]c2ccccc2c1=O [Compound 35],2390 nM,102.9%,129.2%,–,–,–,–
Cc1c(-c2nc3ccc(-c4ccc(F)nc4)cn3n2)[nH]c2ccccc2c1=O [Compound 61],–,108%,155.2%,–,–,–,–
Cc1noc(-c2ccc3nc(-c4[nH]c5ccccc5c(=O)c4C)nn3c2)n1 [Compound 17],> 5000 nM,98.64%,97.68%,–,–,–,–
Cc1c(-c2nc3ccc(-c4nc(C(F)(F)F)nn4C)cn3n2)[nH]c2ccccc2c1=O [Compound 49],> 50000 nM,101.3%,143.58%,–,–,–,–
CNC(=O)c1c(-c2nc3ccc(-c4ccc(OC(F)(F)F)cc4)cn3n2)[nH]c2ccccc2c1=O [Compound 50],–,114.33%,144.07%,86.5 µM,100 µM,negative,[x]1.16
Cc1c(-c2nc3ccc(N4CCC(C(F)(F)F)CC4)cn3n2)[nH]c2ccccc2c1=O [Compound 47],–,99.34%,141.23%,–,–,–,–
Cc1c(-c2nc3ccc(-c4ccnn4C)cn3n2)[nH]c2ccccc2c1=O [Compound 116],4590 nM,"72,01%","85,87%",–,–,–,–
COc1cccc(-c2ccc3nc(-c4[nH]c5ccccc5c(=O)c4C)nn3c2)c1 [Compound 89],574 nM,"55,82%","62,29%",–,–,–,–
Cc1c(-c2nc3ccc(-c4nnc(C(F)(F)F)s4)cn3n2)[nH]c2ccccc2c1=O [Compound 59],–,107.31%,154.34%,–,–,–,–
Cc1c(-c2nc3ccc(-c4ccc(C(F)(F)F)c(F)c4)cn3n2)[nH]c2ccccc2c1=O [Compound 123],4140 nM,"50,75%",–,–,–,–,–
Cc1csc(-c2ccc3nc(-c4[nH]c5ccccc5c(=O)c4C)nn3c2)n1 [Compound 71],> 10000 nM,95.71%,167.55%,–,–,–,–
Cc1c(-c2nc3ccc(-c4cc(F)cc(F)c4)cn3n2)[nH]c2ccccc2c1=O [Compound 88],5350 nM,–,76%,–,–,–,–
Cc1c(-c2nc3ccc(-c4ccc(F)c(F)c4)cn3n2)[nH]c2ccccc2c1=O [Compound 10],–,43.4%,63.9%,–,–,–,–
